In patent US20250176599A1, “FLAVOR COMPOSITION AND FOOD AND BEVERAGE” (TAKASAGO INTERNATIONAL CORPORATION, priority 2021, published 2025):

Columns and labels:
[1] = Sensory evaluation of aqueous solution VI containing 1,5-octadien-3-ol 10 ppb: off-flavor intensity and masking component intensity; details: aqueous solution VI, 1,5-octadien-3-ol 10 ppb, average score 0-4
Method: (§1) In ion-exchanged water, each degradation component was added to achieve the concentrations listed in Table 1, and aqueous solutions I to VI containing these degradation components were prepared.
(§2) For the aforementioned aqueous solutions containing degradation components, nootkatone was added at the concentrations listed in Table 2 to confirm the intensity of the off-flavor (masking effect) in each sample and the intensity of the masking component itself (the impact on the flavor of the food and/or beverage itself).
(§3) The test was conducted as follows. Eight experienced panelists were selected to conduct a sensory evaluation. The intensity of the off-flavor of the aqueous solution containing the degradation components derived from unsaturated fatty acids, without added masking components, was set as “Evaluation: 4.” The ion-exchanged water free of any degradation components was set as “Evaluation: 0.” The intensity of the off-flavor (masking effect) of each sample was then relatively evaluated according to the following evaluation criteria.
(§4) • Off-flavor is strongly sensed: 4 points • Off-flavor is sensed: 3 points • Off-flavor is slightly sensed: 2 points • Off-flavor is barely sensed: 1 point • Off-flavor is not sensed at all: 0 points
(§5) Also, the intensity of the masking components (impact on the flavor of the food and/or beverage itself) was absolutely evaluated according to the following evaluation criteria.
(§6) • Masking component is strongly sensed: 4 points • Masking component is sensed: 3 points • Masking component is slightly sensed: 2 points • Masking component is barely sensed: 1 point • Masking component is not sensed at all: 0 points

[2] = Sensory evaluation of aqueous solution V containing 1-octen-3-ol 10 ppb: off-flavor intensity and masking component intensity; details: 1-octen-3-ol 10 ppb, average score 0-4
Method: as §1, §2, §3, §4, §5, §6

[3] = Sensory evaluation of aqueous solution I containing (E)-2-nonenal 1 ppb: off-flavor intensity and masking component intensity; details: (E)-2-nonenal 1 ppb, average score 0-4
Method: as §1, §2, §3, §4, §5, §6

[4] = Sensory evaluation of aqueous solution II containing (E)-2-octenal 10 ppb: off-flavor intensity and masking component intensity; details: (E)-2-octenal 10 ppb, average score 0-4
Method: as §1, §2, §3, §4, §5, §6

[5] = Sensory evaluation of aqueous solution III containing 1-octen-3-one 1 ppb: off-flavor intensity and masking component intensity; details: 1-octen-3-one 1 ppb, average score 0-4
Method: as §1, §2, §3, §4, §5, §6

[6] = Sensory evaluation of aqueous solution IV containing 1,5-octadien-3-one 100 ppt: off-flavor intensity and masking component intensity; details: aqueous solution IV, 1,5-octadien-3-one 100 ppt, average score 0-4
Method: as §1, §2, §3, §4, §5, §6

[7] = Overall conclusion of the sensory evaluation across aqueous solutions I to VI
Method: as §1, §2, §3, §4, §5, §6

## C=CC(C)(CCC=C(C)C)OC(=O)CCC (centres unmarked) [Linalyl Butyrate, linalyl butyrate]
[1]; 1 ppb added
  Off-Flavor Intensity: 2.0 points
[1]; 1 ppm added
  Off-Flavor Intensity: 0.5 points
[1]; 5 ppm added
  Off-Flavor Intensity: 0.1 points
[1]; 10 ppb added
  Off-Flavor Intensity: 1.8 points
[1]; 10 ppt added
  Off-Flavor Intensity: 2.5 points
[1]; 50 ppb added
  Off-Flavor Intensity: 1.5 points
[1]; 100 ppb added
  Off-Flavor Intensity: 1.3 points
[1]; 100 ppt added
  Off-Flavor Intensity: 2.4 points
[1]; 500 ppb added
  Off-Flavor Intensity: 0.9 points
[2]; 1 ppb added
  Off-Flavor Intensity: 2.6 points
[2]; 1 ppm added
  Off-Flavor Intensity: 1.0 points
[2]; 5 ppm added
  Off-Flavor Intensity: 0.8 points
[2]; 10 ppb added
  Off-Flavor Intensity: 2.3 points
[2]; 10 ppt added
  Off-Flavor Intensity: 3.3 points
[2]; 50 ppb added
  Off-Flavor Intensity: 2.1 points
[2]; 100 ppb added
  Off-Flavor Intensity: 1.9 points
[2]; 100 ppt added
  Off-Flavor Intensity: 3.0 points
[2]; 500 ppb added
  Off-Flavor Intensity: 1.3 points
[3]; 1 ppb added
  Off-Flavor Intensity: 2.6 points
[3]; 1 ppm added
  Off-Flavor Intensity: 1.3 points
[3]; 5 ppm added
  Off-Flavor Intensity: 1.0 points
[3]; 10 ppb added
  Off-Flavor Intensity: 2.3 points
[3]; 10 ppt added
  Off-Flavor Intensity: 3.4 points
[3]; 50 ppb added
  Off-Flavor Intensity: 2.0 points
[3]; 100 ppb added
  Off-Flavor Intensity: 1.9 points
[3]; 100 ppt added
  Off-Flavor Intensity: 3.1 points
[3]; 500 ppb added
  Off-Flavor Intensity: 1.3 points
[4]; 1 ppb added
  Off-Flavor Intensity: 2.3 points
[4]; 1 ppm added
  Off-Flavor Intensity: 0.6 points
[4]; 5 ppm added
  Off-Flavor Intensity: 0.4 points
[4]; 10 ppb added
  Off-Flavor Intensity: 1.8 points
[4]; 10 ppt added
  Off-Flavor Intensity: 3.1 points
[4]; 50 ppb added
  Off-Flavor Intensity: 1.5 points
[4]; 100 ppb added
  Off-Flavor Intensity: 1.4 points
[4]; 100 ppt added
  Off-Flavor Intensity: 2.8 points
[4]; 500 ppb added
  Off-Flavor Intensity: 0.9 points
[5]; 1 ppb added
  Off-Flavor Intensity: 2.6 points
[5]; 1 ppm added
  Off-Flavor Intensity: 1.5 points
[5]; 5 ppm added
  Off-Flavor Intensity: 1.0 points
[5]; 10 ppb added
  Off-Flavor Intensity: 2.3 points
[5]; 10 ppt added
  Off-Flavor Intensity: 3.5 points
[5]; 50 ppb added
  Off-Flavor Intensity: 1.9 points
[5]; 100 ppb added
  Off-Flavor Intensity: 1.9 points
[5]; 100 ppt added
  Off-Flavor Intensity: 3.3 points
[5]; 500 ppb added
  Off-Flavor Intensity: 1.8 points
[6]; 1 ppb added
  Off-Flavor Intensity: 2.9 points
[6]; 1 ppm added
  Off-Flavor Intensity: 0.9 points
[6]; 5 ppm added
  Off-Flavor Intensity: 0.9 points
[6]; 10 ppb added
  Off-Flavor Intensity: 2.6 points
[6]; 10 ppt added
  Off-Flavor Intensity: 3.6 points
[6]; 50 ppb added
  Off-Flavor Intensity: 2.1 points
[6]; 100 ppb added
  Off-Flavor Intensity: 1.6 points
[6]; 100 ppt added
  Off-Flavor Intensity: 3.0 points
[6]; 500 ppb added
  Off-Flavor Intensity: 1.3 points
[7]
  concentration that masks the off-flavor and does not affect the flavor of the food and/or beverage itself, lower limit: ≥ 10 ppt
  concentration that masks the off-flavor and does not affect the flavor of the food and/or beverage itself, upper limit: ≤ 1 ppm
